Measured values reported in the kinase profiling compilation of Christmann-Franck et al. (2016).

Key:
Assay in all cases: KINOMEscan competition binding
[1] = molecular target: CDK8 (human) (UniProt P49336); settings: compound 10.0 µM
[2] = molecular target: SYK (human) (UniProt P43405); settings: compound 10.0 µM
[3] = molecular target: MYLK3 (human) (UniProt Q32MK0); settings: compound 10.0 µM
[4] = molecular target: KIT (human) (UniProt P10721); settings: compound 10.0 µM
[5] = molecular target: LATS1 (human) (UniProt O95835); settings: compound 10.0 µM
[6] = molecular target: ABL2 (human) (UniProt P42684); settings: compound 10.0 µM
[7] = molecular target: ACVR1B (human) (UniProt P36896); settings: compound 10.0 µM
[8] = molecular target: BRSK1 (human) (UniProt Q8TDC3); settings: compound 10.0 µM
[9] = molecular target: TEK (human) (UniProt Q02763); settings: compound 10.0 µM
[10] = molecular target: CaMK1 (human) (UniProt Q14012); settings: compound 10.0 µM
[11] = molecular target: IGF1R (human) (UniProt P08069); settings: compound 10.0 µM
[12] = molecular target: CHEK2 (human) (UniProt O96017); settings: compound 10.0 µM
[13] = molecular target: CLK3 (human) (UniProt P49761); settings: compound 10.0 µM
[14] = molecular target: DDR1 (human) (UniProt Q08345); settings: compound 10.0 µM
[15] = molecular target: MAPK1 (human) (UniProt P28482); settings: for kinase still bound, per cent of control: compound 10.0 µM
MAPK1 (human), sequence (P28482 whole entry, looked up): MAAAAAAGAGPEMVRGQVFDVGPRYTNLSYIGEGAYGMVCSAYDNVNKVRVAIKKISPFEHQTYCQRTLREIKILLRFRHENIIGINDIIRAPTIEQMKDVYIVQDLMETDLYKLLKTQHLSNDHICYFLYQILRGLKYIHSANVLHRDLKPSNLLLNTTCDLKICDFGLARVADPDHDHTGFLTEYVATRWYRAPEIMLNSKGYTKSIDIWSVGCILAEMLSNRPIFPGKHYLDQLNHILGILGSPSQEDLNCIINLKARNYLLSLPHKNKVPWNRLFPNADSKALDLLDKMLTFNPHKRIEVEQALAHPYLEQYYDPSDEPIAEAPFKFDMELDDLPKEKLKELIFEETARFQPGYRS

[16] = molecular target: STK16 (human) (UniProt O75716); settings: compound 10.0 µM
[17] = molecular target: MKNK1 (human) (UniProt Q9BUB5); settings: compound 10.0 µM
[18] = molecular target: RPS6KA5 KD1 (human) (UniProt O75582); settings: compound 10.0 µM
[19] = molecular target: NEK2 (human) (UniProt P51955); settings: compound 10.0 µM
NEK2 (human), sequence (P51955 whole entry, looked up): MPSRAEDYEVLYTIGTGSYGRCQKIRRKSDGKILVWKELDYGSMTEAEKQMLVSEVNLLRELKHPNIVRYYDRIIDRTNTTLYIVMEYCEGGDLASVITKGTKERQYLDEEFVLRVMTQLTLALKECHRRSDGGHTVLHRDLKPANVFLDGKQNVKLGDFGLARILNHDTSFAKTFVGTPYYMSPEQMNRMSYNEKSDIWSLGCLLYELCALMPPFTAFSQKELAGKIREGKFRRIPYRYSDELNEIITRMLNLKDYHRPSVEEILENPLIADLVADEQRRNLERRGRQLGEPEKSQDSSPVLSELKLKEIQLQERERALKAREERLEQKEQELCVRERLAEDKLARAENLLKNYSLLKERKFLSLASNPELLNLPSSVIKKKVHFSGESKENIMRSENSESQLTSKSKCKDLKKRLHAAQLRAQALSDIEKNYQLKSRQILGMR

[20] = system: EGFR (human), P00533 [G719S]; settings: compound 10.0 µM
[21] = molecular target: EIF2AK2 (human) (UniProt P19525); settings: compound 10.0 µM
[22] = molecular target: PTK6 (human) (UniProt Q13882); settings: compound 10.0 µM
[23] = molecular target: INSR (human) (UniProt P06213); settings: compound 10.0 µM
[24] = molecular target: EPHA2 (human) (UniProt P29317); settings: compound 10.0 µM
EPHA2 (human), sequence (P29317 whole entry, looked up): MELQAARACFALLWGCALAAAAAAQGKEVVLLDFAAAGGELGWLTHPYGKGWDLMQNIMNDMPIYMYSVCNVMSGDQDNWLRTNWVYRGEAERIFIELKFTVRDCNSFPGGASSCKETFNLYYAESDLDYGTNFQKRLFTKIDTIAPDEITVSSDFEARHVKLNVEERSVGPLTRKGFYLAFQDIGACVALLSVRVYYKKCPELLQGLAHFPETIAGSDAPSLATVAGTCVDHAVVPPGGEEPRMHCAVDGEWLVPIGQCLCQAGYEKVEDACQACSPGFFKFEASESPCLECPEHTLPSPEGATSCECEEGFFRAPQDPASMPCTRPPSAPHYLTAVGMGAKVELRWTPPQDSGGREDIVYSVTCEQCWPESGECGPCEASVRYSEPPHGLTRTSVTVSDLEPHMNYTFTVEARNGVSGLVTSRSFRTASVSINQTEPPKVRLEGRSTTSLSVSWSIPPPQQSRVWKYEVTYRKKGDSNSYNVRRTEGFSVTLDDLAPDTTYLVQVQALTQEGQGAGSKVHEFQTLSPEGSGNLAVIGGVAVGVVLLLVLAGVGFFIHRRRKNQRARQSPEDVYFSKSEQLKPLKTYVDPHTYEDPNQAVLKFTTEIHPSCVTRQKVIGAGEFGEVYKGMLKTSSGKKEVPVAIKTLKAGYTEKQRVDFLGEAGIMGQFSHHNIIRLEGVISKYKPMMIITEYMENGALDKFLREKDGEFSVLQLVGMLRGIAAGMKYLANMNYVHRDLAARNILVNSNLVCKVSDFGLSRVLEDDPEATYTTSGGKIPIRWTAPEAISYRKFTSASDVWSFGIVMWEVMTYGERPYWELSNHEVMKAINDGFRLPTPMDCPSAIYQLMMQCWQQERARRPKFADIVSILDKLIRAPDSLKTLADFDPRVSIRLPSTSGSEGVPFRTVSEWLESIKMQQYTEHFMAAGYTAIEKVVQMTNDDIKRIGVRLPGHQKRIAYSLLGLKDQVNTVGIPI

[25] = molecular target: MAP4K2 (human) (UniProt Q12851); settings: compound 10.0 µM
[26] = molecular target: HCK (human) (UniProt P08631); settings: compound 10.0 µM
[27] = molecular target: CDK9 (human) (UniProt P50750); settings: compound 10.0 µM
[28] = molecular target: ACVRL1 (human) (UniProt P37023); settings: compound 10.0 µM
[29] = molecular target: NUAK2 (human) (UniProt Q9H093); settings: compound 10.0 µM
[30] = molecular target: CDK17 (human) (UniProt Q00537); settings: compound 10.0 µM
[31] = molecular target: CDK2 (human) (UniProt P24941); settings: compound 10.0 µM
[32] = molecular target: TYK2 JH2 pseudokinase (human) (UniProt P29597); settings: compound 10.0 µM
[33] = molecular target: GAK (human) (UniProt O14976); settings: compound 10.0 µM
[34] = molecular target: CDKL2 (human) (UniProt Q92772); settings: compound 10.0 µM
[35] = molecular target: CSK (human) (UniProt P41240); settings: compound 10.0 µM
[36] = molecular target: LTK (human) (UniProt P29376); settings: compound 10.0 µM
[37] = molecular target: CSNK2A1 (human) (UniProt P68400); settings: compound 10.0 µM
CSNK2A1 (human), sequence (P68400 whole entry, looked up): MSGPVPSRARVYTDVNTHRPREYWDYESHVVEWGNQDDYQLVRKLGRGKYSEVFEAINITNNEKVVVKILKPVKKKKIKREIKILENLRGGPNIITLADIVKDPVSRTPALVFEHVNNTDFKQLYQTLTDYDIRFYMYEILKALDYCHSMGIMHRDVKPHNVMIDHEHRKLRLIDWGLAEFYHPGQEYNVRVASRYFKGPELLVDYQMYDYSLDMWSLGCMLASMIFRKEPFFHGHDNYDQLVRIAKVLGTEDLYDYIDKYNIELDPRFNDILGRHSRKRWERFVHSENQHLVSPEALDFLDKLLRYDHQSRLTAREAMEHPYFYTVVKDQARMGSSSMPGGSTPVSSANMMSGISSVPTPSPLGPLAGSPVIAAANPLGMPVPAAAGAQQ

[38] = molecular target: INSRR (human) (UniProt P14616); settings: compound 10.0 µM
INSRR (human), sequence (P14616 whole entry, looked up): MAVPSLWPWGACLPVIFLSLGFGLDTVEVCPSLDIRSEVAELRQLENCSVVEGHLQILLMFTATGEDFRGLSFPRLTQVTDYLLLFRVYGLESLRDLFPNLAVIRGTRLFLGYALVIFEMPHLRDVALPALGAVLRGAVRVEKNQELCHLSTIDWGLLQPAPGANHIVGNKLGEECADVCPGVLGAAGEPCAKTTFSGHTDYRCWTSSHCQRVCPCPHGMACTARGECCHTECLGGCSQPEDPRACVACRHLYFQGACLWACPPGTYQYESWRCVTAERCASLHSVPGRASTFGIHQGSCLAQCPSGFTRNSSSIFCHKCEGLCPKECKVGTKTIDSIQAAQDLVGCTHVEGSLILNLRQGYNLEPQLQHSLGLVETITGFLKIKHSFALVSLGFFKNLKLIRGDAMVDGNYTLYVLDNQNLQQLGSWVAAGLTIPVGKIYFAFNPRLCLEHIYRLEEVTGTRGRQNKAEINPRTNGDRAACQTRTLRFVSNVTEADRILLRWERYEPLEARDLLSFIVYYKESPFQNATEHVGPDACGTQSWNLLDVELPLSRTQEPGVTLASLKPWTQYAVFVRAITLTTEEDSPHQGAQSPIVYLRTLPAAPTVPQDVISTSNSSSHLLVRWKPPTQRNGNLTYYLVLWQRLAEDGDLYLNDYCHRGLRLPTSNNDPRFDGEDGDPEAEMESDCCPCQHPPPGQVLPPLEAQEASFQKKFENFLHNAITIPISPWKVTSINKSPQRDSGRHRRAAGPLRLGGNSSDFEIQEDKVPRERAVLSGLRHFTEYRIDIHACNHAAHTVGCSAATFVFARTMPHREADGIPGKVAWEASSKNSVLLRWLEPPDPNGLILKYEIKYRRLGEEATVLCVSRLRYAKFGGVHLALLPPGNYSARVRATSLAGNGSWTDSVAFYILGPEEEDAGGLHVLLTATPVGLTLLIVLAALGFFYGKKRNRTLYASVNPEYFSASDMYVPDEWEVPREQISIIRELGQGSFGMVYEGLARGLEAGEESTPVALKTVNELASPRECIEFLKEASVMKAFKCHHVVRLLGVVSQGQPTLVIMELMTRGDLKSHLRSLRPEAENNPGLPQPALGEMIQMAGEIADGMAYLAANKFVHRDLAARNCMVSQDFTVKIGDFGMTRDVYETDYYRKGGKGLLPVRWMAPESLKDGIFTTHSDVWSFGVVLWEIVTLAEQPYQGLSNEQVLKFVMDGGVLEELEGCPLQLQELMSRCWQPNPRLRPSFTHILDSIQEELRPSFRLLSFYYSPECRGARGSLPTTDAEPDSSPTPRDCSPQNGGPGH

[39] = molecular target: CAMK1G (human) (UniProt Q96NX5); settings: compound 10.0 µM
[40] = molecular target: ALK (human) (UniProt Q9UM73); settings: compound 10.0 µM
[41] = molecular target: FES (human) (UniProt P07332)
[42] = system: FLT3 (human), P36888 [D835Y]; settings: compound 10.0 µM
[43] = molecular target: CDK16 (human) (UniProt Q00536); settings: compound 10.0 µM

MYLK3 (human), sequence (Q32MK0 whole entry, looked up): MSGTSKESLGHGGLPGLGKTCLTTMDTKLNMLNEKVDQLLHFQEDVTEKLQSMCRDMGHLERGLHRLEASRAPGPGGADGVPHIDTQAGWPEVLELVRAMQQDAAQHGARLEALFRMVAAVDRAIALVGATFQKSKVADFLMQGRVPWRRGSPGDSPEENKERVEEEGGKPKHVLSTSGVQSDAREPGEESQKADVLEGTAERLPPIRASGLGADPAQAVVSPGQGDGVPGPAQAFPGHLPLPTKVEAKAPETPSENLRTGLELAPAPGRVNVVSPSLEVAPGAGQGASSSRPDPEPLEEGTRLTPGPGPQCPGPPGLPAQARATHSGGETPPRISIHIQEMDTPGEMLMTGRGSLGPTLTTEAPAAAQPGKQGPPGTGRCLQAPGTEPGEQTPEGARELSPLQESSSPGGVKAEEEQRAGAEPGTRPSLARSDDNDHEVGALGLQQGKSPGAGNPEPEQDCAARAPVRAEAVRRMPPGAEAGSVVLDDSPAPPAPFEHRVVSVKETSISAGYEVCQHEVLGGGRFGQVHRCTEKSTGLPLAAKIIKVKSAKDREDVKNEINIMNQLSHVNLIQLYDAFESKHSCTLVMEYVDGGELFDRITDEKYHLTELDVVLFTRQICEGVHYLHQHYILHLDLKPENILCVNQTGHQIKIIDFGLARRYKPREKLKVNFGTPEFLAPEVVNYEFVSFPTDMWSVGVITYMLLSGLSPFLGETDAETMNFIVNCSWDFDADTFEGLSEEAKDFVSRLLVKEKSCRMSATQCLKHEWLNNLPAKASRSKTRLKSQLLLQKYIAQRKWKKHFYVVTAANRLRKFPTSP
CDK8 (human), sequence (P49336 whole entry, looked up): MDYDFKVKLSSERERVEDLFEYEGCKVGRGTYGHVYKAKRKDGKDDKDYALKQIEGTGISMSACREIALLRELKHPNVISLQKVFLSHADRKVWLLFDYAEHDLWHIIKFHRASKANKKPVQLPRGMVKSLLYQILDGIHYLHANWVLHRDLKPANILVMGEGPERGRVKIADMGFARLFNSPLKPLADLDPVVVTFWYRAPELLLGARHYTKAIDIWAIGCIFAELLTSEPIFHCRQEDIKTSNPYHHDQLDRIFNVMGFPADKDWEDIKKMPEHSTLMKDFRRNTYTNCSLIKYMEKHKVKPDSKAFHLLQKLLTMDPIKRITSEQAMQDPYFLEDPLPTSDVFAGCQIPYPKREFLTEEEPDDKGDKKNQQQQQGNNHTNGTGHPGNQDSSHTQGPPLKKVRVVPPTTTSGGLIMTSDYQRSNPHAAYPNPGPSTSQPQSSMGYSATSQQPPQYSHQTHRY

`COc1cc(N2CCC(N3CCN(C)CC3)CC2)ccc1Nc1ncc(Cl)c(Nc2ccccc2S(=O)(=O)C(C)C)n1` was tested, and the kinase still bound, per cent of control [1] was 40%, the kinase still bound, per cent of control [2] was 3.4% and the kinase still bound, per cent of control [3] was 40%. It also gave a kinase still bound, per cent of control [4] of 0.1%, a kinase still bound, per cent of control [5] of 32% and a kinase still bound, per cent of control [6] of 1.4%. For the same compound, the kinase still bound, per cent of control [7] was 0.05%, the kinase still bound, per cent of control [8] was 1.2% and the kinase still bound, per cent of control [9] was 0%. It also gave a kinase still bound, per cent of control [10] of 1.4%, a kinase still bound, per cent of control [11] of 0% and a kinase still bound, per cent of control [12] of 0%. For the same compound, the kinase still bound, per cent of control [13] was 3%, the kinase still bound, per cent of control [14] was 0.05% and the kinase still bound, per cent of control [15] was 0.3%. It also gave a kinase still bound, per cent of control [16] of 2.8%, a kinase still bound, per cent of control [17] of 40% and a kinase still bound, per cent of control [18] of 40%. For the same compound, the kinase still bound, per cent of control [19] was 2.5%, the kinase still bound, per cent of control [20] was 9.6% and the kinase still bound, per cent of control [21] was 40%. It also gave a kinase still bound, per cent of control [22] of 0.15%, a kinase still bound, per cent of control [23] of 0% and a kinase still bound, per cent of control [24] of 27%. For the same compound, the kinase still bound, per cent of control [25] was 9.4%, the kinase still bound, per cent of control [26] was 0.35% and the kinase still bound, per cent of control [27] was 40%. For the same compound, the kinase still bound, per cent of control [28] was 1.7%, the kinase still bound, per cent of control [29] was 0% and the kinase still bound, per cent of control [30] was 9.9%. For the same compound, the kinase still bound, per cent of control [31] was 24%, the kinase still bound, per cent of control [32] was 11% and the kinase still bound, per cent of control [33] was 0.1%. For the same compound, the kinase still bound, per cent of control [34] was 40%, the kinase still bound, per cent of control [35] was 2% and the kinase still bound, per cent of control [36] was 0%. The kinase still bound, per cent of control [37] was 27% and the kinase still bound, per cent of control [38] was 0.35%.

`CCOc1cc(N2CCC(N3CCCCC3)CC2)ccc1Nc1nc(Nc2ccccc2S(=O)(=O)C(C)C)c2cn[nH]c2n1` gave a kinase still bound, per cent of control [1] of 100%, a kinase still bound, per cent of control [2] of 100% and a kinase still bound, per cent of control [3] of 100%. For the same compound, the kinase still bound, per cent of control [4] was 87%, the kinase still bound, per cent of control [5] was 100% and the kinase still bound, per cent of control [6] was 97%. It also gave a kinase still bound, per cent of control [7] of 100%, a kinase still bound, per cent of control [8] of 100% and a kinase still bound, per cent of control [9] of 100%. It also gave a kinase still bound, per cent of control [10] of 4.6%, a kinase still bound, per cent of control [11] of 0.25% and a kinase still bound, per cent of control [12] of 23%. It also gave a kinase still bound, per cent of control [13] of 50%, a kinase still bound, per cent of control [39] of 26% and a kinase still bound, per cent of control [14] of 100%. The IC50 [15] was 6.5 mM, the kinase still bound, per cent of control [15] was 0.7% and the kinase still bound, per cent of control [40] was 34%. For the same compound, the kinase still bound, per cent of control [16] was 76%, the kinase still bound, per cent of control [17] was 53% and the kinase still bound, per cent of control [18] was 100%. It also gave a kinase still bound, per cent of control [19] of 100%, a kinase still bound, per cent of control [20] of 100% and a kinase still bound, per cent of control [21] of 100%. The kinase still bound, per cent of control [22] was 10%, the kinase still bound, per cent of control [23] was 0.3% and the kinase still bound, per cent of control [24] was 100%. For the same compound, the kinase still bound, per cent of control [25] was 97%, the kinase still bound, per cent of control [26] was 100% and the kinase still bound, per cent of control [27] was 100%. For the same compound, the IC50 [41] was 0.058 mM, the kinase still bound, per cent of control ([41]; compound 10.0 µM) was 3.6% and the kinase still bound, per cent of control [28] was 100%. For the same compound, the kinase still bound, per cent of control [29] was 27%, the kinase still bound, per cent of control [30] was 100% and the kinase still bound, per cent of control [31] was 100%. For the same compound, the kinase still bound, per cent of control [32] was 63%, the kinase still bound, per cent of control [33] was 6% and the kinase still bound, per cent of control [34] was 91%. It also gave a kinase still bound, per cent of control [35] of 100%, a kinase still bound, per cent of control [42] of 59% and a kinase still bound, per cent of control [36] of 1.7%. The kinase still bound, per cent of control [43] was 98%, the kinase still bound, per cent of control [37] was 100% and the kinase still bound, per cent of control [38] was 0.4%.
